From patent EP0714404B1, “ANTI-INFLAMMATORY PEPTIDES” (CURATIVE TECHNOLOGIES, INC., priority 1993, dated 1995)
Where two headings read alike, the source gives them in different places. Residues, ends and D or L forms follow the SMILES beside them.

Experiments:
[1] = tested on: Arachidonic Acid Induced Inflammation; assay type: in vivo, mice; conditions: for % Reduction of Ear Swelling / Ear Thickness: sc minipump
Protocol: The anti-inflammatory properties of CT-112 (SEQ. ID NO: 1) were assessed using a standardized assay for anti-inflammatory activity, i.e., the mouse ear model in which arachidonic acid (AA) is used to induce an inflammatory reaction (Young et al., 1984, J. Invest. Dermatol. 82:367-371; Doherty, et al., 1988, J. Invest. Dermatol. 91:298-302).
Female mice (C57BL/6UAF, Charles River Breeding Laboratories, approximately 15-18 g) were obtained and acclimated for 2 weeks prior to use. The animals were approximately 14 weeks old at the start of the study.
To prepare minipumps for implantation, CT-112 (SEQ. ID NO: 1) was dissolved in PBS. The material was loaded into Alzet minipumps set to deliver 0.05 (5 animals), 0.1 (10 animals), 1 (10 animals), or 2.5 (5 animals) mg of CT-112 (SEQ. ID NO: 1) per animal per day. Minipumps for implantation into control animals contained only PBS. As a positive control, one set of 10 mice received 100 mg/kg of phenidone, a potent 5-lipoxygenase inhibitor which acts as an anti-inflammatory agent, 15 min prior to challenge with AA.
For subcutaneous implantation of minipumps, animals were anesthetized with Ketamine/Xylazine. The Ketamine (Aveco Lot #440140) was injected at 80 mg/kg and the Xylazine (Rugby Laboratories Lot #26040-B) at 16 mg/kg and the Alzet pumps were implanted subcutaneously in the dorsothoracic area. Animals were allowed to recover and then housed and given food and water ad libitum for 5 days.
On the sixth day following pump implantation, 0.01 ml of AA was applied to the inner and outer surfaces of the right ear by means of an automatic microliter pipette. One hr following AA application, the mice were sacrificed and ear thickness was measured with a Mitutoyo No. 7300 Gauge Caliper. The left ears were also measured as an internal control.
Mice were implanted with Alzet mini-pumps set to deliver 60 mg/kg/day for either 7, 3, or 1 days. A separate group of 5 mice received 3 intraperitoneal injections of CT-112 (60 mg/kg/injection) at 24, 1 and 0.25 hr prior to AA challenge. CT-112 (SEQ. ID NO: 1) was prepared for injection by dissolving the compound in Dulbecco's PBS to give a final CT-112 (SEQ. ID NO: 1) concentration of 5 mg/ml. The control mice were implanted with Alzet minipumps that delivered PBS for 7 days. The AA challenge was the same as described supra in Example 7.
Administration of CT-112 (SEQ. ID NO: 1) (60 mg/kg/injection) via multiple intraperitoneal injections was performed at the following times prior to AA challenge: • a) 6, 3, 1 and 0.25 hr; • b) 3, 1 and 0.25 hr; or • c) 1 and 0.25 hr.
In addition, the effect of a single administration of CT-112 (SEQ. ID NO: 1) (60 mg/kg) by intraperitoneal injection was performed at either 1 or 3 hr prior to AA challenge. Control mice had Alzet minipumps implanted to deliver PBS for 7 days prior to AA challenge. The AA challenge was the same as described supra in Example 7. The results of the multiple dosing regimens and the 1 hr and 3 hr single dosing regimens were compared to the anti-inflammatory activity of CT-112 (SEQ. ID NO: 1) delivered via Alzet minipump set to deliver 60 mg/kg/day for 7 days using 5 animals per treatment.
In a separate experiment, the effect of multiple intraperitoneal injections of CT-112 (SEQ. ID NO: 1) at either 6, 3, 1 and 0.25 hr, or 16, 3, 1 and 0.25 hr prior to AA challenge was assessed. The results of both multi-dosing regimens were compared to both phenidone (100 mg/kg administered 15 min prior to AA challenge) and CT-112 (SEQ. ID NO: 1) administered via Alzet mini-pump (60 mg/kg/day for 7 days). For this latter study, the number of animals receiving the single injection of CT-112 (SEQ. ID NO: 1) was increased from 5 to 10.
Administration to mice of CT-112 (SEQ. ID NO: 1) (60 mg/kg/injection) via multiple subcutaneous injections prior to AA challenge was performed at: • a) 6, 3, 1 and 0.25 hr; • b) 3, 1 and 0.25 hr; or • c) 1 and 0.25 hr. […]

acute toxicity in mice = assay type: in vivo; conditions: intravenous 100, 500 or 1,000 mg/kg
Protocol: Acute toxicity of CT-112 (SEQ. ID NO: 1) in mice and rats was assessed. Mice were dosed by intravenous injection with CT-112 (SEQ. ID NO: 1) at 100, 500 or 1,000 mg/kg.

[2] = 0.05 mg/animal/day, AA on sixth day

Compound: CC(C)[C@H](NC(=O)[C@H](CCC(N)=O)NC(=O)[C@H](CO)NC(=O)[C@@H](NC(=O)[C@@H](N)[C@@H](C)O)[C@@H](C)O)C(=O)N[C@@H](CCCNC(=N)N)C(=O)N1CCC[C@H]1C(=O)N[C@@H](CCCNC(=N)N)C(=O)O [CT-112, Thr-Thr-Ser-Gln-Val-Arg-Pro-Arg] (H-TTSQVRPR-OH)
- % Reduction of Ear Swelling [1, 2]: 43.1%
- Ear Thickness [1, 2]: 0.01577 ± 0.00155 (5) in
- % Reduction of Ear Swelling ([1]; 0.1 mg/animal/day): 43.1%
- Ear Thickness ([1]; 0.1 mg/animal/day): 0.01577 ± 0.00191 (10) in
- % Reduction of Ear Swelling ([1]; 1.0 mg/animal/day): 89.0%
- Ear Thickness ([1]; 1.0 mg/animal/day): 0.01128 ± 0.00291 (10) in
- % Reduction of Ear Swelling ([1]; 2.5 mg/animal/day): 95.6%
- Ear Thickness ([1]; 2.5 mg/animal/day): 0.0106 ± 0.00175 (5) in
- Thickness Difference (Left-Right) ([1]; Table III, 1-day pump, 60 mg/kg/day): -0.00074 ± 0.00119 in
- Thickness Difference (Left-Right) ([1]; Table III, 3-day pump, 60 mg/kg/day): -0.00115 ± 0.00058 in
- Thickness Difference (Left-Right) ([1]; Table III, 7-day pump, 60 mg/kg/day): -0.00051 ± 0.00116 in
- Thickness Difference (Left-Right) ([1]; Table III, ip 60 mg/kg/injection at 24, 1 and 0.25 hr prior to AA): 0.00226 ± 0.00124 in
- Thickness Difference (Left-Right) ([1]; Table IV, 7-day pump, 60 mg/kg/day): 0.00033 ± 0.00065 in
- Thickness Difference (Left-Right) ([1]; Table IV, ip 60 mg/kg/injection at 1 and 0.25 hr prior to AA): 0.00192 ± 0.00148 in
- Thickness Difference (Left-Right) ([1]; Table IV, ip 60 mg/kg/injection at 3, 1 and 0.25 hr prior to AA): 0.00141 ± 0.00138 in
- Thickness Difference (Left-Right) ([1]; Table IV, ip 60 mg/kg/injection at 6, 3, 1 and 0.25 hr prior to AA): 0.00144 ± 0.00126 in
- Thickness Difference (Left-Right) ([1]; Table IV, single ip 60 mg/kg 1 hr prior to AA): 0.00308 ± 0.00189 in
- Thickness Difference (Left-Right) ([1]; Table IV, single ip 60 mg/kg 3 hr prior to AA): 0.00116 ± 0.001 in
- Thickness Difference (Left-Right) ([1]; Table V, 7-day pump, 60 mg/kg/day): -0.00003 ± 0.0012(5) in
- Thickness Difference (Left-Right) ([1]; Table V, ip injections at 6, 3, 1 and 0.25 hr prior to AA): 0.00249 ± 0.0017(10) in
- Thickness Difference (Left-Right) ([1]; Table V, ip injections at 16, 3, 1 and 0.25 hr prior to AA): 0.00283 ± 0.00218(10) in
- Thickness Difference (Left-Right) ([1]; Table VI, 7-day pump, 60 mg/kg/day): 0.00083 ± 0.00084 in
- Thickness Difference (Left-Right) ([1]; Table VI, sc 60 mg/kg/injection at 1 and 0.25 hr prior to AA): 0.00195 ± 0.00131 in
- Thickness Difference (Left-Right) ([1]; Table VI, sc 60 mg/kg/injection at 3, 1 and 0.25 hr prior to AA): 0.00193 ± 0.0007 in
- Thickness Difference (Left-Right) ([1]; Table VI, sc 60 mg/kg/injection at 6, 3, 1 and 0.25 hr prior to AA): 0.00147 ± 0.00041 in
- Thickness Difference (Left-Right) ([1]; Table VI, single sc 60 mg/kg 1 hr prior to AA): 0.00174 ± 0.00128 in
- Thickness Difference (Left-Right) ([1]; Table VI, single sc 60 mg/kg 3 hr prior to AA): 0.00213 ± 0.00089 in
- Thickness Difference (Left-Right) ([1]; Table VII, 3 day pump, 60 mg/kg/day): 0.00127 ± 0.00128 in
- Thickness Difference (Left-Right) ([1]; Table VII, single ip 3 hr prior to AA): 0.00242 ± 0.00187 in
- Thickness Difference (Left-Right) ([1]; Table VII, single sc 1 hr prior to AA): 0.00214 ± 0.00122 in
- Thickness Difference (Left-Right) ([1]; Table VII, single sc 3 hr prior to AA): 0.00243 ± 0.00107 in
- Thickness Difference (Left-Right) ([1]; Table VII, single sc 6 hr prior to AA): 0.00117 ± 0.00066 in
- Thickness Difference (Left-Right) ([1]; Table VII, single sc -.25 (hr) prior to AA): 0.00252 ± 0.00128 in
- Thickness Difference (Left-Right) ([1]; Table VIII, 3 day pump, 60 mg/kg/day): 0.00058 ± 0.00086 in
- Thickness Difference (Left-Right) ([1]; Table VIII, po 200 mg/kg/gavage at 1 and 0.25 hr prior to AA): 0.00241 ± 0.00124 in
- Thickness Difference (Left-Right) ([1]; Table VIII, po 200 mg/kg/gavage at 3, 1 and 0.25 hr prior to AA): 0.0028 ± 0.00114 in
- Thickness Difference (Left-Right) ([1]; Table VIII, po 200 mg/kg/gavage at 6, 3, 1 and 0.25 hr prior to AA): 0.00134 ± 0.00257 in
- Thickness Difference (Left-Right) ([1]; Table VIII, single gavage 200 mg/kg 1 hr prior to AA): 0.00139 ± 0.00122 in
- Thickness Difference (Left-Right) ([1]; Table VIII, single gavage 200 mg/kg 3 hr prior to AA): 0.00031 ± 0.00198 in
- Thickness Difference (Left-Right) ([1]; Table XI, 6 mg/kg/day, minipump, AA three days after implantation): 0.00381 ± 0.00066 in
- Thickness Difference (Left-Right) ([1]; Table XI, 60 mg/kg/day, minipump, AA three days after implantation): 0.00095 ± 0.00064 in
- Thickness Difference (Left-Right) ([1]; Table XIII, 24 hr via Alzet pump, 60 mg/kg/day): 0.00132 ± 0.00086 in
- Difference Treatment (Left - Right) ([1]; Table XIV, 24 hr via Alzet pump, 60 mg/kg/day): 0.00134 ± 0.00044 in
- Thickness Difference (Left-Right) ([1]; Table XV, 24 hr via Alzet pump, 60 mg/kg/day): 0.00154 ± 0.00092 in
- % Inhibition of Inflammation ([1]; mouse, in vivo, 6 mg/kg/day): 40.8%
- % Inhibition of Inflammation ([1]; mouse, in vivo, 60 mg/kg, 3 h): 78.5%
- % Inhibition of Inflammation ([1]; mouse, in vivo, 200 mg/kg, 1 h): 72.3%
- % Inhibition of Inflammation ([1]; mouse, in vivo, 200 mg/kg, 3 h): 93.8%
- % Inhibition of Inflammation ([1]; mouse, in vivo, ip, 60 mg/kg): 62%
- % Inhibition of Inflammation ([1]; mouse, in vivo, ip, 3 h): 37.2%
- inhibition of the inflammatory process ([1]; mouse, in vivo, po, 200 mg/kg): 52-94%
- % Inhibition of Inflammation ([1]; mouse, in vivo, sc): 34.7%
- % Inhibition of Inflammation ([1]; mouse, in vivo, sc, 60 mg/kg, 1 h): 71.8%
- % Inhibition of Inflammation ([1]; mouse, in vivo, sc, 60 mg/kg, 3 h): 65.5%
- % Inhibition of Inflammation ([1]; mouse, in vivo, sc, 1 h): 44.5%
- % Inhibition of Inflammation ([1]; mouse, in vivo, sc, 3 h): 36.9%
- % Inhibition of Inflammation ([1]; mouse, in vivo, sc, 6 h): 69.6%
- reduction in inflammation ([1]; multiple IP injections at 6, 3, 1 and 0.25 hr or 16, 3, 1 and 0.25 hr prior to AA): 56-61%
- duration of activity ([1]; subcutaneous injection, 60 mg/kg): greater than 6 hr
- inhibition of the inflammatory process ([1]; subcutaneous injection, all multi-dosing and single-dosing regimens, 60 mg/kg/injection): approximately 70%
- lesions at necropsy (acute toxicity in mice): No lesions were visible
- mean body weight or mean body weight gain (acute toxicity in mice; control vs treated): no statistical differences
- clinical effects (acute toxicity in mice; one mouse at 500 and two at 1,000 mg/kg, day of treatment): Minimal transient clinical effects (hypoactivity and hypersensitivity)
